From US20260262643A1, “HERBICIDAL BENZOXAZINES” (FMC CORPORATION, priority 2022, published 2026)

How the values were obtained:
green foxtail [1] = assay: Test C preemergence; format: in vivo, Setaria viridis
Method in brief: (§1)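 Soil-applied (pre) and foliar (post, 1–2 leaf, 2–10 cm) sprays; surfactant-containing non-phytotoxic solvent vehicle; loam/sand substrate. Readout: visual % control at 10 d, greenhouse, versus untreated.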

pigweed, palmer [2] = assay: Test C postemergence; format: in vivo, Amaranthus palmeri; settings: 10 days, 0 to 100 scale (0 no effect, 100 complete control)
Method in brief: as §1

barnyardgrass [3] = assay: Test D flooded paddy test; format: in vivo, Echinochloa crus-galli; settings: 250 g ai/ha, applied to paddy water, visual rating after 13 to 14 days, scale 0 to 100 (0 no effect, 100 complete control)
Method in brief: (§2)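 Rating scale 0–100 (0 no effect, 100 complete control), visual, versus controls. Readout at 13–14 days after in-water application to 2-leaf plants in pots flooded 3 cm deep.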

horseweed = assay: Test C postemergence; format: in vivo, Erigeron canadensis; settings: 10 days, 0 to 100 scale (0 no effect, 100 complete control)
Method in brief: as §1

corn [4] = assay: Test C preemergence; format: in vivo, Zea mays
Method in brief: as §1

wheat [5] = assay: Test C preemergence; format: in vivo, Triticum aestivum
Method in brief: as §1

galium = assay: Test C postemergence; format: in vivo, Galium aparine; settings: 10 days, 0 to 100 scale (0 no effect, 100 complete control)
Method in brief: as §1

kochia [6] = assay: Test C postemergence; format: in vivo, Bassia scoparia; settings: 10 days, 0 to 100 scale (0 no effect, 100 complete control)
Method in brief: as §1

rice = assay: Test D flooded paddy test; format: in vivo, Oryza sativa; settings: 250 g ai/ha, applied to paddy water, visual rating after 13 to 14 days, scale 0 to 100 (0 no effect, 100 complete control)
Method in brief: as §2

barnyardgrass [7] = assay: Test C preemergence; format: in vivo, Echinochloa crusgalli
Method in brief: as §1

blackgrass [8] = assay: Test C preemergence; format: in vivo, Alopecurus myosuroides
Method in brief: as §1

green foxtail [9] = assay: Test C postemergence; format: in vivo, Setaria viridis; settings: 10 days, 0 to 100 scale (0 no effect, 100 complete control)
Method in brief: as §1

ragweed [10] = assay: Test C postemergence; format: in vivo, Ambrosia artemisiifolia; settings: 10 days, 0 to 100 scale (0 no effect, 100 complete control)
Method in brief: as §1

kochia [11] = assay: Test C preemergence; format: in vivo, Bassia scoparia
Method in brief: as §1

oat, wild [12] = assay: Test C preemergence; format: in vivo, Avena fatua
Method in brief: as §1

ryegrass, Italian [13] = assay: Test C postemergence; format: in vivo, Lolium multiflorum; settings: 10 days, 0 to 100 scale (0 no effect, 100 complete control)
Method in brief: as §1

oat, wild [14] = assay: Test C postemergence; format: in vivo, Avena fatua; settings: 10 days, 0 to 100 scale (0 no effect, 100 complete control)
Method in brief: as §1

sedge, umbrella = assay: Test D flooded paddy test; format: in vivo, Cyperus difformis; settings: 250 g ai/ha, applied to paddy water, visual rating after 13 to 14 days, scale 0 to 100 (0 no effect, 100 complete control)
Method in brief: as §2

soybean [15] = assay: Test C postemergence; format: in vivo, Glycine max; settings: 10 days, 0 to 100 scale (0 no effect, 100 complete control)
Method in brief: as §1

corn [16] = assay: Test C postemergence; format: in vivo, Zea mays; settings: 10 days, 0 to 100 scale (0 no effect, 100 complete control)
Method in brief: as §1

blackgrass [17] = assay: Test C postemergence; format: in vivo, Alopecurus myosuroides; settings: 10 days, 0 to 100 scale (0 no effect, 100 complete control)
Method in brief: as §1

ryegrass, Italian [18] = assay: Test C preemergence; format: in vivo, Lolium multiflorum
Method in brief: as §1

soybean [19] = assay: Test C preemergence; format: in vivo, Glycine max
Method in brief: as §1

barnyardgrass [20] = assay: Test C postemergence; format: in vivo, Echinochloa crusgalli; settings: 10 days, 0 to 100 scale (0 no effect, 100 complete control)
Method in brief: as §1

ducksalad = assay: Test D flooded paddy test; format: in vivo, Heteranthera limosa; settings: 250 g ai/ha, applied to paddy water, visual rating after 13 to 14 days, scale 0 to 100 (0 no effect, 100 complete control)
Method in brief: as §2

wheat [21] = assay: Test C postemergence; format: in vivo, Triticum aestivum; settings: 10 days, 0 to 100 scale (0 no effect, 100 complete control)
Method in brief: as §1

ragweed [22] = assay: Test C preemergence; format: in vivo, Ambrosia artemisiifolia
Method in brief: as §1

pigweed, palmer [23] = assay: Test C preemergence; format: in vivo, Amaranthus palmeri
Method in brief: as §1

[24] = 500 g ai/ha, preemergence, 0 to 100 scale (0 no effect, 100 complete control)
[25] = Preemergence, 125 g ai/ha, 0 to 100 scale, 0 no effect, 100 complete control

CC(C)c1ncn(-c2ccc(OS(C)(=O)=O)c(C(=O)N3C[C@H](C)Oc4c(Cl)cccc43)c2)n1 [Compound 338]
20: Plant response rating, Horseweed (horseweed; 500 g ai/ha, postemergence) | Wheat plant response rating (wheat [5]; [24]) | Plant response rating, Blackgrass (blackgrass [8]; [25]) | Plant response rating, Oat, Wild (oat, wild [14]; 500 g ai/ha, postemergence) | Plant response rating, Oat, Wild (oat, wild [14]; Postemergence, 125 g ai/ha) | Plant response rating, Wheat (wheat [21]; Postemergence, 125 g ai/ha)
0: Plant response rating, Wheat (wheat [5]; [25]) | Ragweed plant response rating (ragweed [22]; [24]) | Plant response rating, Ragweed (ragweed [22]; [25])
40: Plant response rating, Ragweed (ragweed [10]; 500 g ai/ha, postemergence) | Plant response rating, Blackgrass (blackgrass [17]; Postemergence, 125 g ai/ha) | Plant response rating, Ducksalad (Flood) (ducksalad) | Plant response rating, Wheat (wheat [21]; 500 g ai/ha, postemergence)
100: Foxtail, Green plant response rating (green foxtail [1]; [24]) | Plant response rating, Pigweed, Palmer (pigweed, palmer [2]; 500 g ai/ha, postemergence) | Plant response rating, Galium (galium; 500 g ai/ha, postemergence) | Plant response rating, Galium (galium; Postemergence, 125 g ai/ha) | Plant response rating, Kochia (kochia [6]; 500 g ai/ha, postemergence) | Barnyardgrass plant response rating (barnyardgrass [7]; [24]) | Kochia plant response rating (kochia [11]; [24]) | Plant response rating, Soybean (soybean [15]; 500 g ai/ha, postemergence) | Plant response rating, Soybean (soybean [15]; Postemergence, 125 g ai/ha) | Ryegrass, Italian plant response rating (ryegrass, Italian [18]; [24]) | Pigweed, Palmer plant response rating (pigweed, palmer [23]; [24]) | Plant response rating, Pigweed, Palmer (pigweed, palmer [23]; [25])
45: Plant response rating, Sedge, Umbrella (Flood) (sedge, umbrella)
10: Plant response rating, Barnyardgrass (Flood) (barnyardgrass [3]) | Plant response rating, Horseweed (horseweed; Postemergence, 125 g ai/ha) | Plant response rating, Corn (corn [4]; [25]) | Plant response rating, Rice (Flood) (rice)
50: Corn plant response rating (corn [4]; [24]) | Oat, Wild plant response rating (oat, wild [12]; [24])
30: Plant response rating, Foxtail, Green (green foxtail [9]; Postemergence, 125 g ai/ha) | Plant response rating, Ragweed (ragweed [10]; Postemergence, 125 g ai/ha) | Plant response rating, Oat, Wild (oat, wild [12]; [25]) | Plant response rating, Soybean (soybean [19]; [25]) | Plant response rating, Barnyardgrass (barnyardgrass [20]; Postemergence, 125 g ai/ha)
60: Plant response rating, Barnyardgrass (barnyardgrass [7]; [25]) | Plant response rating, Kochia (kochia [11]; [25])
70: Plant response rating, Foxtail, Green (green foxtail [9]; 500 g ai/ha, postemergence) | Plant response rating, Ryegrass, Italian (ryegrass, Italian [13]; Postemergence, 125 g ai/ha) | Plant response rating, Blackgrass (blackgrass [17]; 500 g ai/ha, postemergence) | Plant response rating, Barnyardgrass (barnyardgrass [20]; 500 g ai/ha, postemergence)
80: Blackgrass plant response rating (blackgrass [8]; [24]) | Plant response rating, Ryegrass, Italian (ryegrass, Italian [13]; 500 g ai/ha, postemergence) | Plant response rating, Corn (corn [16]; 500 g ai/ha, postemergence) | Plant response rating, Corn (corn [16]; Postemergence, 125 g ai/ha) | Soybean plant response rating (soybean [19]; [24])
90: Plant response rating, Foxtail, Green (green foxtail [1]; [25]) | Plant response rating, Pigweed, Palmer (pigweed, palmer [2]; Postemergence, 125 g ai/ha) | Plant response rating, Kochia (kochia [6]; Postemergence, 125 g ai/ha) | Plant response rating, Ryegrass, Italian (ryegrass, Italian [18]; [25])
